US6593319B1, “Fusidic acid derivatives” (Leo Pharmaceutical Products, Ltd. A/S, priority 2001, dated 2003)

Legend:
Staphylococcus/291-2 = experiment: MIC, microtitter plates, liquid medium containing broth; assay type: cell-based; settings: Staphylococcus/291-2, coagulase negative, FusS
Method: (§1) In vitro investigations have evidenced high potency of compounds of the invention against several bacteria including staphylococci, streptococci, corynebacteriae and mycobacteriae. […] The biological tests are conducted on microtitter plates using liquid medium containing broth.

M. tuberculosis/R 498 = experiment: as above; assay type: cell-based
Method: as §1

Streptococcus - gr.C/68 = experiment: as above; assay type: cell-based
Method: as §1

Staphylococcus/379-2 = experiment: as above; assay type: cell-based; settings: Staphylococcus/379-2, coagulase negative, FusR
Method: as §1

Streptococcus - gr.G/59 = experiment: as above; assay type: cell-based
Method: as §1

N. gonorrhoea/C1 = experiment: as above; assay type: cell-based
Method: as §1

S. aureus/54 USA-br = experiment: as above; assay type: cell-based; settings: FusR, MSSA
Method: as §1

P. acnes/1060 = experiment: as above; assay type: cell-based
Method: as §1

[1] = tested on: E. faecalis/V583 P. Cour.; experiment: as above; assay type: cell-based; settings: VanR
Method: as §1

N. meningitidis/K1 = experiment: as above; assay type: cell-based
Method: as §1

Streptococcus - gr.B/61 = experiment: as above; assay type: cell-based
Method: as §1

S. aureus/22 DK = experiment: as above; assay type: cell-based; settings: FusS, MSSA
Method: as §1

C. diphteria/62001 = experiment: as above; assay type: cell-based
Method: as §1

S. aureus/ATCC 29213 = experiment: as above; assay type: cell-based; settings: FusS, MSSA
Method: as §1

S. aureus/1 Aus-pe = experiment: as above; assay type: cell-based; settings: FusS, MRSA
Method: as §1

[2] = tested on: Streptococcus - gr.A/67011; experiment: as above; assay type: cell-based
Method: as §1

[3] = Stability in ethanol solution (retained activity); assay type: physicochemical; settings: solution in ethanol stored at 0° C. for 1 month
S. aureus Leoid CJ234(R) = experiment: MIC, agar diffusion method (European Pharmacopoeia 3rd Ed.); assay type: cell-based; settings: MRSA and Rifampicin resistant
Method: (§2) The antibacterial activity of some of these compounds relative to fusidic acid appears from Table 2 showing MIC values for compounds of the invention. The method used is recommended by the European Pharmacopoeia 3rd Ed. (1997) for testing the potency of antibiotics. It is an agar diffusion method where the same volume of the tested solution is added to cavities in agar. The inhibition zones are a function of the concentration of the fusidic acid analogue used. All assays are run with fusidic acid (1) as the reference substance. The results in Table 2 differ from those of Table 1 due to the different experimental methods used.

[4] = tested on: Strep. faecium Leo id. E119(P); experiment: as above; assay type: cell-based; settings: Penicillin resistant
Method: as §2

S. aureus Leo id. CJ232 = experiment: as above; assay type: cell-based; settings: S. aureus Leo id. CJ232, MRSA
Method: as §2

S. aureus ATCC2977 = experiment: as above; assay type: cell-based
Method: as §2

S. aureus ATCC6538P = experiment: as above; assay type: cell-based
Method: as §2

[5] = tested on: Strep. sp. Gr.B Leo id. EF6; experiment: as above; assay type: cell-based
Method: as §2

[6] = tested on: Strep. epidermis A. ATCC12228; experiment: as above; assay type: cell-based
Method: as §2

[7] = tested on: Strep. faecalis ATCC10541; experiment: as above; assay type: cell-based
Method: as §2

Row | Structure (SMILES) | MIC values (concentrations in μg/ml required for 90% inhibition) (S. aureus Leoid CJ234(R)) [µg/mL] | MIC values (concentrations in μg/ml required for 90% inhibition) [4] [µg/mL] | MIC values (concentrations in μg/ml required for 90% inhibition) (S. aureus Leo id. CJ232) [µg/mL] | MIC values (concentrations in μg/ml required for 90% inhibition) (S. aureus ATCC2977) [µg/mL] | MIC values (concentrations in μg/ml required for 90% inhibition) (S. aureus ATCC6538P) [µg/mL] | MIC values (concentrations in μg/ml required for 90% inhibition) [5] [µg/mL] | MIC values (concentrations in μg/ml required for 90% inhibition) [6] [µg/mL] | MIC values (concentrations in μg/ml required for 90% inhibition) [7] | further results
1 | CC(=O)OC1CC2(C)C(CC(O)C3C4(C)CCC(O)C(C)C4CCC32C)C1C(CCC=C(C)C)C(=O)O [Compound 101, 17(S),20(S)-Dihydrofusidic Acid] | 0.001 | 1.2 | 0.003 | 0.001 | 0.002 | 3.5 | 0.001 | 3.7 µg/mL | MIC values (concentrations in μg/ml required for 90% inhibition) (Staphylococcus/291-2): 1 µg/mL; MIC values (concentrations in μg/ml required for 90% inhibition) (M. tuberculosis/R 498): 16 µg/mL; MIC values (concentrations in μg/ml required for 90% inhibition) (Streptococcus - gr.C/68): 4 µg/mL; MIC values (concentrations in μg/ml required for 90% inhibition) (Staphylococcus/379-2): 64 µg/mL; MIC values (concentrations in μg/ml required for 90% inhibition) (Streptococcus - gr.G/59): 8 µg/mL; MIC values (concentrations in μg/ml required for 90% inhibition) (N. gonorrhoea/C1): 4 µg/mL; MIC values (concentrations in μg/ml required for 90% inhibition) (S. aureus/54 USA-br): 8 µg/mL; MIC values (concentrations in μg/ml required for 90% inhibition) (P. acnes/1060): 0.5 µg/mL; MIC values (concentrations in μg/ml required for 90% inhibition) [1]: 16 µg/mL; MIC values (concentrations in μg/ml required for 90% inhibition) (N. meningitidis/K1): 1 µg/mL; MIC values (concentrations in μg/ml required for 90% inhibition) (Streptococcus - gr.B/61): >64 µg/mL; MIC values (concentrations in μg/ml required for 90% inhibition) (S. aureus/22 DK): 1 µg/mL; MIC values (concentrations in μg/ml required for 90% inhibition) (C. diphteria/62001): 0.063 µg/mL; MIC values (concentrations in μg/ml required for 90% inhibition) (S. aureus/ATCC 29213): 1 µg/mL; MIC values (concentrations in μg/ml required for 90% inhibition) (S. aureus/1 Aus-pe): 1 µg/mL; MIC values (concentrations in μg/ml required for 90% inhibition) [2]: 64 µg/mL; retained initial activity [3]: > 80%
2 | CC(=O)O[C@H]1C[C@@]2(C)[C@@H](C[C@@H](O)[C@H]3[C@@]4(C)CC[C@@H](O)[C@@H](C)[C@@H]4CC[C@@]32C)[C@H]1[C@H](CCCC(C)C)C(=O)O [Compound 102, 17(S),20(S),24,25-Tetrahydrofusidic Acid] | 0.009 | 3.9 | 0.12 | 0.02 | 0.016 | 3.4 | 0.015 | MIC>64 μg/ml | 
3 | CCC(=O)OC1CC2(C)C(CC(O)C3C4(C)CCC(O)C(C)C4CCC32C)C1C(CCC=C(C)C)C(=O)O [Compound 105, 16-Deacetoxy-16β-propionyloxy-17(S),20(S)-dihydrofusidic Acid] | 0.063 | 3.9 | 0.24 | 0.19 | 0.22 | >64 | 0.08 | >64 µg/mL | 
4 | CC(C)=CCCC(C(=O)O)C1C(OC(=O)C2CCCCC2)CC2(C)C1CC(O)C1C3(C)CCC(O)C(C)C3CCC12C [Compound 113, 16-Deacetoxy-16β-cyclohexylcarbonyloxy-17(S),20(S)-dihydrofusidic acid] | 16 | >64 | 16 | 16 | 16 | 4 | >64 | >64 µg/mL | 
